From PubChem BioAssay AID1259407 (Chemical Carcinogenesis Research Information System (CCRIS), 2018)
Calls of active or inactive are those of the source. No rule for the calls is given here.

Test system: CCRIS mutagenicity, Ames/micronucleus/aberration tests
Test: CCRIS mutagenicity studies
[1] = Test System: AMES SALMONELLA TYPHIMURIUM, Strain/Indicator: TA98, Metabolic Activation: NONE, Method: PREINCUBATION
[2] = Test System: AMES SALMONELLA TYPHIMURIUM, Strain/Indicator: TA100, Metabolic Activation: NONE, Method: PREINCUBATION
[3] = Test System: AMES SALMONELLA TYPHIMURIUM, Strain/Indicator: TA1535, Metabolic Activation: NONE, Method: PREINCUBATION
[4] = Test System: AMES SALMONELLA TYPHIMURIUM, Strain/Indicator: TA1537, Metabolic Activation: NONE, Method: PREINCUBATION

For `CCCCCCCCCc1ccc(OP(=O)(Oc2ccccc2)Oc2ccccc2)cc1`, the mutagenic call (Test System: AMES SALMONELLA TYPHIMURIUM, Strain/Indicator: TA97, Metabolic Activation: HAMSTER, LIVER, S-9, AROCLOR 1254 (5, 10 OR 30%), Method: PREINCUBATION) was “inactive; negative”, the mutagenic call (Test System: AMES SALMONELLA TYPHIMURIUM, Strain/Indicator: TA97, Metabolic Activation: RAT, LIVER, S-9, AROCLOR 1254 (10%), Method: PREINCUBATION) was “inactive; negative” and the mutagenic call (Test System: AMES SALMONELLA TYPHIMURIUM, Strain/Indicator: TA97, Metabolic Activation: RAT, LIVER, S-9, AROCLOR 1254 (30%), Method: PREINCUBATION) was “inactive; negative”. For the same compound, the mutagenic call (Test System: AMES SALMONELLA TYPHIMURIUM, Strain/Indicator: TA98, Metabolic Activation: HAMSTER, LIVER, S-9, AROCLOR 1254 (10 OR 30%), Method: PREINCUBATION) was “inactive; negative”, the mutagenic call [1] was “inactive; negative” and the mutagenic call (Test System: AMES SALMONELLA TYPHIMURIUM, Strain/Indicator: TA98, Metabolic Activation: RAT, LIVER, S-9, AROCLOR 1254 (10 OR 30%), Method: PREINCUBATION) was “inactive; negative”. For the same compound, the mutagenic call (Test System: AMES SALMONELLA TYPHIMURIUM, Strain/Indicator: TA100, Metabolic Activation: HAMSTER, LIVER, S-9, AROCLOR 1254 (10 OR 30%), Method: PREINCUBATION) was “inactive; negative”, the mutagenic call [2] was “inactive; negative” and the mutagenic call (Test System: AMES SALMONELLA TYPHIMURIUM, Strain/Indicator: TA100, Metabolic Activation: RAT, LIVER, S-9, AROCLOR 1254 (10 OR 30%), Method: PREINCUBATION) was “inactive; negative”. The mutagenic call (Test System: AMES SALMONELLA TYPHIMURIUM, Strain/Indicator: TA1535, Metabolic Activation: HAMSTER, LIVER, S-9, AROCLOR 1254 (10 OR 30%), Method: PREINCUBATION) was “inactive; negative”, the mutagenic call [3] was “inactive; negative” and the mutagenic call (Test System: AMES SALMONELLA TYPHIMURIUM, Strain/Indicator: TA1535, Metabolic Activation: RAT, LIVER, S-9, AROCLOR 1254 (10 OR 30%), Method: PREINCUBATION) was “inactive; negative”. The mutagenic call (Test System: AMES SALMONELLA TYPHIMURIUM, Strain/Indicator: TA1537, Metabolic Activation: HAMSTER, LIVER, S-9, AROCLOR 1254 (5, 10 OR 30%), Method: PREINCUBATION) was “inactive; negative”, the mutagenic call [4] was “inactive; negative” and the mutagenic call (Test System: AMES SALMONELLA TYPHIMURIUM, Strain/Indicator: TA1537, Metabolic Activation: RAT, LIVER, S-9, AROCLOR 1254 (5, 10 OR 30%), Method: PREINCUBATION) was “inactive; negative”.
`c1ccc2c(OCC3CO3)nsc2c1` (centres undefined) was tested, and the mutagenic call (Test System: AMES SALMONELLA TYPHIMURIUM, Strain/Indicator: TA100, Metabolic Activation: NONE, Method: STANDARD PLATE) was “active; positive”.
In the case of `CC1=NN(c2ccccc2)C(=O)C1`, the mutagenic call (Test System: AMES SALMONELLA TYPHIMURIUM, Strain/Indicator: TA98, Metabolic Activation: HAMSTER, LIVER, S-9, AROCLOR 1254 (10%), Method: PREINCUBATION) is reported as “inactive; negative”, the mutagenic call [1] is reported as “inactive; negative” and the mutagenic call (Test System: AMES SALMONELLA TYPHIMURIUM, Strain/Indicator: TA98, Metabolic Activation: RAT, LIVER, S-9, AROCLOR 1254 (10%), Method: PREINCUBATION) is reported as “inactive; negative”. The mutagenic call (Test System: AMES SALMONELLA TYPHIMURIUM, Strain/Indicator: TA100, Metabolic Activation: HAMSTER, LIVER, S-9, AROCLOR 1254 (10%), Method: PREINCUBATION) was “inactive; negative”, the mutagenic call [2] was “inactive; negative” and the mutagenic call (Test System: AMES SALMONELLA TYPHIMURIUM, Strain/Indicator: TA100, Metabolic Activation: RAT, LIVER, S-9, AROCLOR 1254 (10%), Method: PREINCUBATION) was “inactive; negative”. The mutagenic call (Test System: AMES SALMONELLA TYPHIMURIUM, Strain/Indicator: TA1535, Metabolic Activation: HAMSTER, LIVER, S-9, AROCLOR 1254 (10%), Method: PREINCUBATION) was “inactive; negative”, the mutagenic call [3] was “inactive; negative” and the mutagenic call (Test System: AMES SALMONELLA TYPHIMURIUM, Strain/Indicator: TA1535, Metabolic Activation: RAT, LIVER, S-9, AROCLOR 1254 (10%), Method: PREINCUBATION) was “inactive; negative”. The mutagenic call (Test System: AMES SALMONELLA TYPHIMURIUM, Strain/Indicator: TA1537, Metabolic Activation: HAMSTER, LIVER, S-9, AROCLOR 1254 (10%), Method: PREINCUBATION) was “inactive; negative”, the mutagenic call [4] was “inactive; negative” and the mutagenic call (Test System: AMES SALMONELLA TYPHIMURIUM, Strain/Indicator: TA1537, Metabolic Activation: RAT, LIVER, S-9, AROCLOR 1254 (10%), Method: PREINCUBATION) was “inactive; negative”. The mutagenic call (Test System: Ames Salmonella typhimurium, Strain/Indicator: TA98, Metabolic Activation: None, Method: Preincubation) was “inactive; negative”, the mutagenic call (Test System: Ames Salmonella typhimurium, Strain/Indicator: TA98, Metabolic Activation: Rat, Liver, S-9, Phenobarbital and 5,6-benzoflavone, Method: Preincubation) was “inactive; negative” and the mutagenic call (Test System: Ames Salmonella typhimurium, Strain/Indicator: TA100, Metabolic Activation: None, Method: Preincubation) was “inactive; negative”. For the same compound, the mutagenic call (Test System: Ames Salmonella typhimurium, Strain/Indicator: TA100, Metabolic Activation: Rat, Liver, S-9, Phenobarbital and 5,6-benzoflavone, Method: Preincubation) was “inactive; negative”, the mutagenic call (Test System: Ames Salmonella typhimurium, Strain/Indicator: TA1535, Metabolic Activation: None, Method: Preincubation) was “inactive; negative” and the mutagenic call (Test System: Ames Salmonella typhimurium, Strain/Indicator: TA1535, Metabolic Activation: Rat, Liver, S-9, Phenobarbital and 5,6-benzoflavone, Method: Preincubation) was “inactive; negative”. For the same compound, the mutagenic call (Test System: Ames Salmonella typhimurium, Strain/Indicator: TA1537, Metabolic Activation: None, Method: Preincubation) was “inactive; negative”, the mutagenic call (Test System: Ames Salmonella typhimurium, Strain/Indicator: TA1537, Metabolic Activation: Rat, Liver, S-9, Phenobarbital and 5,6-benzoflavone, Method: Preincubation) was “inactive; negative” and the mutagenic call (Test System: E. COLI, Strain/Indicator: WP2 UVRA, Metabolic Activation: HAMSTER, LIVER, S-9, AROCLOR 1254, Method: STANDARD PLATE) was “inactive; negative”. For the same compound, the mutagenic call (Test System: E. COLI, Strain/Indicator: WP2 UVRA, Metabolic Activation: HAMSTER, LIVER, S-9, Method: STANDARD PLATE) was “inactive; negative”, the mutagenic call (Test System: E. COLI, Strain/Indicator: WP2 UVRA, Metabolic Activation: MOUSE, LIVER, S-9, AROCLOR 1254, Method: STANDARD PLATE) was “inactive; negative” and the mutagenic call (Test System: E. COLI, Strain/Indicator: WP2 UVRA, Metabolic Activation: MOUSE, LIVER, S-9, Method: STANDARD PLATE) was “inactive; negative”. For the same compound, the mutagenic call (Test System: E. COLI, Strain/Indicator: WP2 UVRA, Metabolic Activation: NONE, Method: STANDARD PLATE) was “inactive; negative”, the mutagenic call (Test System: E. COLI, Strain/Indicator: WP2 UVRA, Metabolic Activation: RAT, LIVER, S-9, AROCLOR 1254, Method: STANDARD PLATE) was “inactive; negative” and the mutagenic call (Test System: E. COLI, Strain/Indicator: WP2 UVRA, Metabolic Activation: RAT, LIVER, S-9, Method: STANDARD PLATE) was “inactive; negative”. For the same compound, the mutagenic call (Test System: E. coli, Strain/Indicator: WP2uvrA/pKM101, Metabolic Activation: None, Method: Preincubation) was “inactive; negative”, the mutagenic call (Test System: E. coli, Strain/Indicator: WP2uvrA/pKM101, Metabolic Activation: Rat, Liver, S-9, Phenobarbital and 5,6-benzoflavone, Method: Preincubation) was “inactive; negative” and the mutagenic call (Test System: MOUSE LYMPHOMA, Strain/Indicator: L5178Y (TK+/TK-), Metabolic Activation: NONE, Method: SUSPENSION/PLATE) was “inactive; negative”. The mutagenic call (Test System: MOUSE LYMPHOMA, Strain/Indicator: L5178Y (TK+/TK-), Metabolic Activation: RAT, LIVER, S-9, AROCLOR 1254, Method: SUSPENSION/PLATE) was “active; positive”.
With `NNc1nc(-c2ccc(N)cc2)cs1` the mutagenic call (Test System: AMES SALMONELLA TYPHIMURIUM, Strain/Indicator: TA98, Metabolic Activation: RAT, LIVER, S-9, KC500 OR PHENOBARBITAL, Method: LIQUID SUSPENSION) was “active; positive” and the mutagenic call (Test System: AMES SALMONELLA TYPHIMURIUM, Strain/Indicator: TA100, Metabolic Activation: RAT, LIVER, S-9, KC500 OR PHENOBARBITAL, Method: LIQUID SUSPENSION) was “active; positive”.
With `CC(=O)c1ccc2c(c1)C(=O)C1(CC1)O2` the mutagenic call (Test System: AMES SALMONELLA TYPHIMURIUM, Strain/Indicator: TA98, Metabolic Activation: NONE) was “inactive; negative”, the mutagenic call (Test System: AMES SALMONELLA TYPHIMURIUM, Strain/Indicator: TA98, Metabolic Activation: S-9) was “inactive; negative” and the mutagenic call (Test System: AMES SALMONELLA TYPHIMURIUM, Strain/Indicator: TA100, Metabolic Activation: NONE) was “inactive; negative”. The mutagenic call (Test System: AMES SALMONELLA TYPHIMURIUM, Strain/Indicator: TA100, Metabolic Activation: S-9) was “inactive; negative”, the mutagenic call (Test System: AMES SALMONELLA TYPHIMURIUM, Strain/Indicator: TA1535, Metabolic Activation: NONE) was “inactive; negative” and the mutagenic call (Test System: AMES SALMONELLA TYPHIMURIUM, Strain/Indicator: TA1535, Metabolic Activation: S-9) was “inactive; negative”. The mutagenic call (Test System: AMES SALMONELLA TYPHIMURIUM, Strain/Indicator: TA1537, Metabolic Activation: NONE) was “inactive; negative”, the mutagenic call (Test System: AMES SALMONELLA TYPHIMURIUM, Strain/Indicator: TA1537, Metabolic Activation: S-9) was “inactive; negative” and the mutagenic call (Test System: E. COLI, Strain/Indicator: WP2 (HCR), Metabolic Activation: NONE) was “inactive; negative”. For the same compound, the mutagenic call (Test System: E. COLI, Strain/Indicator: WP2 (HCR), Metabolic Activation: S-9) was “inactive; negative”.
